{
  "source": "patent US9096504B2",
  "about": "“Controlled chemical release of hydrogen sulfide” (Washington State University, priority 2010, dated 2015)",
  "key": {"[1]": {"system": "mice subjected to ischemia followed by reperfusion", "assay": "Mouse model of ischemia followed by reperfusion (Elrod et al.)", "assay_type": "in vivo", "settings": "compared to vehicle treated mice", "method": "The effects of compound 2 have been tested using the mouse model of Elrod et al. (Proc. Natl. Acad. Sci. USA 2007, 104, 15560). Briefly, mice were subjected to ischemia followed by reperfusion. During reperfusion, compound 2 was administered to the mice."}, "[2]": {"assay": "H2S release measurement in plasma (colorimetry method)", "assay_type": "in vitro ADME, bovine/calf", "settings": "plasma containing ~500 μM cysteine", "method": "It is known that plasma contains significant amount of free cysteine. We therefore measured H2S generation of 2-13 in plasma (containing ˜500 μM cysteine) using a colorimetry method.\nTo 0.5 mL of bovine/calf plasma was added […] containing zinc acetate (1% w/v, 100 μL) and trichloroacetic acid (10% w/v, 600 μL). The mixture was allowed to centrifuge for 10 min (5000 g). The precipitate was filtered out and 1.2 mL of the clear solution was transferred into a 2-mL vial containing N,N-dimethyl-1,4-phenylenediamine sulfate (150 μL, 20 mM) in 7.2 M HCl and ferric chloride (150 μL, 30 mM) in 1.2 M HCl. […] The absorbance (670 nm) of aliquots of the resulting solution (1.5 mL) was determined using a UV-VIS spectrometer. The concentration of MB^+ was then converted to the concentration of H2S according to the reaction equation shown above and the calibration curve was generated by plotting the absorbance versus [H2S].\nTo 2.0 mL of bovine/calf plasma (containing cysteine […]) was added 2 mL water solution containing 5a (25 μl, of 80 mM in DMSO). […] Subsequently, N,N-dimethyl-p-phenylenediamine sulfate (20 mM, 150 μL) in 7.2 M HCl was added followed by FeCl3 (30 mM, 150 μL) in 1.2 M HCl, and absorbance (670 nm) of aliquots of the resulting solution (1.5 mL) was determined 20 minutes thereafter using a UV-Vis spectrometer."}, "[3]": {"assay": "Methylene blue experiment for H2S release in PBS buffer in presence of cysteine or GSH", "assay_type": "physicochemical", "settings": "PBS buffer pH 7.4, donor 150 μM", "method": "Na2S Standard Curve for H2S Release\n2.0 mM Na2S stock solution was prepared as described in previous section. Five aliquots of Na2S solution at 3.75 μL, 7.50 μL, 15.0 μL, 45.0 μL, and 112.5 μl were injected into the 4-mL vials containing H2O (1.0 mL), zinc acetate (1% w/v, 100 μL), N,N-dimethyl-1,4-phenylenediamine sulfate (200 μL, 20 mM) in 7.2 M HCl and ferric chloride (200 μL, 30 mM) in 1.2 M HCl, respectively. Stir the resultant solution for 15 minutes at room temperature. The absorbance (670 nm) of aliquots was determined using a UV-Vis spectrometer.\nCysteine stock solution in H2O (400 mM, 112.5 μL) and N-(benzoylthio)benzamide 2 stock solution in THF (40 mM, 112.5 μL) were added into PBS buffer solution (30 mL, pH=7.4) containing EDTA (50 mM, 60 μL), respectively. Every 3 minute, 1.0 mL of aliquots were taken to 4-mL vials containing, zinc acetate (1% w/v, 100 μL), N,N-dimethyl-1,4-phenylenediamine sulfate (200 μL, 20 mM) in 7.2 M HCl and ferric chloride (200 μL, 30 mM) in 1.2 M HCl within 3 hours. Then the absorbance (670 nm) was determined using a UV-Vis spectrometer.\nThe initial concentrations of H2S-donors shown below were 150 μM and the detection of H2S released from these molecules was measured in presence of 1.5 mM of cysteine or GSH, unless otherwise indicated."}, "[4]": {"settings": "1.5 mM GSH, experimental period 3 hours"}},
  "data": [
    {"smiles": "O=C(NSC(=O)c1ccccc1)c1ccccc1", "note": "[Compound 2, N-(benzoylthio)benzamide]", "values": [
      {"measurement": "reduction in infarct size per area-at-risk (INF/AAR)", "setting": "[1]; 100 μg/kg bolus during reperfusion, maximal", "result": 40, "unit": "%"},
      {"measurement": "infarct size per area-at-risk (INF/AAR), dose dependence", "setting": "[1]; administered during reperfusion", "result": "dose-dependent reduction"},
      {"measurement": "H2S generation in plasma", "setting": "[2]", "result": "time-dependent H2S release"},
      {"measurement": "GSH Peaking time", "setting": "[3]; [4]", "result": 39, "unit": "min"},
      {"measurement": "GSH [H2S] at peaking time", "setting": "[3]; [4]", "result": 140.4, "unit": "µM"},
      {"measurement": "Cys Peaking time", "setting": "[3]; 1.5 mM cysteine", "result": 24, "unit": "min"},
      {"measurement": "Cys [H2S] at peaking time", "setting": "[3]; 1.5 mM cysteine", "result": 143.6, "unit": "µM"}
    ]}
  ]
}
